In publication PMC6844378, “Structure activity relationship studies on Amb639752: toward the identification of a common pharmacophoric structure for DGKα inhibitors” (Journal of Enzyme Inhibition and Medicinal Chemistry, 2019):

Tests used:
DGKα = DGKα (Homo sapiens, UniProt P23743); test: Isoform specificity, DGKα homogenates of transfected 293T cells; format: biochemical; conditions: 100 µM; 293T homogenates
Method: 293T cells were transiently transfected with indicated DGK isoform plasmid DNA using Lipofectamine 3000, Invitrogen (Carlsbad, CA). Forty eight hours after transfection, cells were harvested and homogenised with a 29 G-needle using 500 µL of homogenate buffer for each dish and immediately stored in aliquots at –80 °C. Cells transfected with empty vector were used as controls, overexpressed DGK has an activity >50 folds the endogenous.
Essentionally, the same procedure was followed as reported previously in Velnati et al.[9] In brief, DGK activity was assayed by measuring initial velocities (5 min at 27 °C) in presence of saturating substrate concentrations. Reaction conditions: 0.9 µg/µL 1,2-dioleoyl-sn-glycerol, 5 mM ATP, 0.01 µCi/µL [γ^32P]-ATP, 1 mM sodium orthovanadate, 10 mM MgCl2, 1.2 mM EGTA in 7.5 mM Hepes pH 8[12]. Reaction mixture is assembled mixing enzyme (24.5 µL of homogenate), 100× inhibitor or DMSO (0.5 µL), 5× ATP solution (10 µL of 25 mM ATP, 0.05 µCi/µL [γ^32P]-ATP (Perkin-Elmer, Milan, Italy), 5 mM sodium orthovanadate, 50 mM MgCl2), and 3.3× DAG solution (15 µL of 3 µg/µL 1,2-dioleoyl-sn-glycerol resuspended by sonication in 4 mM EGTA in 25 mM Hepes pH 8). […] TLC was run 10 cm and dried before radioactive signals were detected by GS-250 molecular imager and was quantified by quantity one (Bio-Rad, Hercules, CA) software assuring the absence of saturated spots. […]

serotonin receptors = test: Superoxide anion production: serotonin effect on PMA-induced oxidative burst in monocytes; format: cell-based; conditions: drugs 10 µM, 1 h; serotonin 1 µM; PMA 1 µM 30 min; human monocytes
Method: Human monocytes were isolated from healthy anonymous human buffy coats (provided by the Transfusion Service of Ospedale Maggiore della Carità, Novara, Italy) by the standard technique of dextran sedimentation and Histopaque (density = 1.077 g cm^3, Sigma-Aldrich, Milano, Italy) gradient centrifugation (400×g, 30 min, room temperature) and recovered by fine suction at the interface, as described previously. Purified monocytes populations were obtained by adhesion (90 min, 37 °C, 5% CO2) in serum-free RPMI 1640 medium (Sigma-Aldrich, Milano, Italy) supplemented with 2 mM glutamine and antibiotics. Cell viability (trypan blue dye exclusion) was usually >98%.
All the experiments were performed in triplicate using cells isolated from each single donor.
Monocytes (250,000 cells/well) were treated for 1 h with the indicated drugs (10 µM) with or without serotonin (1 µM). Then, cells were stimulated with phorbol 12-myristate 13-acetate (PMA; Sigma-Aldrich, Milano, Italy) 1 µM for 30 min. PMA is a well-known stimulus that induces a strong and significant respiratory burst via PKC activation. Superoxide anion production was then evaluated by the superoxide dismutase (SOD)-sensitive cytochrome C (CytC) reduction assay and expressed as nmoles CytC reduced/10^6 cells/30 min, using an extinction coefficient of 21.1 mM. To avoid interference with spectrophotometrical recordings, cells were incubated with RPMI 1640 without phenol red, antibiotics, and FBS.
To this purpose, we measured the effect of serotonin on PMA-induced oxidative burst in human monocytes. As previously shown, 1 µM serotonin reverses the oxidative burst to control values.
Figure 8. […] Results are expressed as n moles of reduced cytochrome C/10^6 cells. Data are means ± SEM of 10 independent experiments performed in triplicate.

DGKα, sequence (P23743 whole entry, canonical isoform): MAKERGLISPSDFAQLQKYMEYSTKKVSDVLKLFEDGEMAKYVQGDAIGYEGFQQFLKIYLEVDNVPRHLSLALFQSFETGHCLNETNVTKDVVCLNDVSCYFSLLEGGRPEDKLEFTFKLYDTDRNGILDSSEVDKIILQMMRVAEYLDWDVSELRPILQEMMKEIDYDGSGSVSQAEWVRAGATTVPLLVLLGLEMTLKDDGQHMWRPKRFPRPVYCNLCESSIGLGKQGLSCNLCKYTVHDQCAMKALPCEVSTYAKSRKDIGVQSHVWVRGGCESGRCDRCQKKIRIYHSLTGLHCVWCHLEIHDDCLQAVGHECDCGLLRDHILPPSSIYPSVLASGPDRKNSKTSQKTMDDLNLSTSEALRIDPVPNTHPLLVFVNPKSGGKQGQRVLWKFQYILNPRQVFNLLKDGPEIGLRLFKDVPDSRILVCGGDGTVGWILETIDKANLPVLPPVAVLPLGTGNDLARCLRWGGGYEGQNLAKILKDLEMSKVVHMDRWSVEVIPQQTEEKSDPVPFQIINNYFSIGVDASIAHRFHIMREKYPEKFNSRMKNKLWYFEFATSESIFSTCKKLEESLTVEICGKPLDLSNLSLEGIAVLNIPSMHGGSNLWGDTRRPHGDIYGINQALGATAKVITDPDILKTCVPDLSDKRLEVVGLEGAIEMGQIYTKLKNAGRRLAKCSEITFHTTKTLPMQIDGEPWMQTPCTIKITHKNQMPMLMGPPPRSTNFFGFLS

inhibition of DGKα activity (DGKα): completely inhibit
effect on serotonin action on PMA-induced oxidative burst (serotonin receptors): had no effect
Compound: Cc1ccc2c(C(=O)CN3CCN(C(=O)c4ccco4)CC3)c(C)[nH]c2c1 [Amb639752]
